US20200216496A1, “Antibacterial Compounds Produced by the Microorganism Strain Corallococcus Coralloides ST201330 (DSM 24989)” (Sanofi, priority 2017, published 2020)
*1 amine or outer side, *2 acyl side, *3 side chain or, on linkers, in order; H or OH if unused. Where a SMILES comes first, the peptide text is derived from it. [ ]: non-standard residue; d: D form. The star is where a group is joined. ξ: configuration not given here. X2 = Cn1cncc1C(O)C(N[*:1])C(=O)[*:2]; X3 = COC(CN[*:1])C(O)C(O)C(=O)[*:2]; ξVal(3-OH) = CC(C)(O)C(N)C(=O)O; NMeF = CN[CH](Cc1ccccc1)C(=O)O; X4 = O=C(C(O)N[*:1])[*:2]; X1 = CC(O)C(O)C(=O)*

What was measured:
E. coli strain ATCC35218 = type: cell-based, Escherichia coli
Method: The present in vitro test identifies molecules having antimicrobial activity on the microorganisms by quantification of the culture optical density. Optical density compared to a vial with the same medium non inoculated by bacteria is an indicator of the bacterial growth. Minimal inhibitory concentrations were evaluated following the CLSI and EUCAST guidelines. Bacterial inoculum were prepared by overnight culture in cation-adjusted Mueller-Hinton II (MHII) medium from colonies isolated from colonies on agar plates, then diluted to evaluate the colony forming units (cfu) using the McFarland turbidity standard. A 96 well plate was inoculated with 100 μl of 5.105 cfu/ml in MHII, and test compounds prepared by serial dilution at 100× concentration in DMSO. After a 20-22 h incubation, optical density was evaluated on a microplate reader and the MIC endpoint was determined as the lowest concentration of antibiotic at which there is no visible growth in duplicates, meaning that optical density differs no more from negative controls than 10% of the difference in optical density between negative controls (medium, no bacteria) and positive control (bacteria in medium, no antibiotics).

[1] = tested on: Escherichia coli ATCC 35218; assay: Antibacterial activity against Escherichia coli: inhibitory activity (IC80), broth microdilution, absorbance at 590 nm; type: cell-based; conditions: Mueller Hinton broth, 37° C., 20 hours, growth inhibited by 80%
Method: A stock solution of 1000 μg/ml of the test compound was prepared in methanol. The test strain (Escherichia coli ATCC 35218) was stored at −80° C. The inoculum was prepared from a fresh liquid preculture. The preculture was prepared from a bead of the material stored at −80° C. and 30 ml of nutrient medium (Mueller Hinton broth, Difco) and incubated at 37° C. and 180 rpm for 18 hours. The inoculum was adjusted to an optical density (OD) of 0.2 at a wavelength of 600 nm. For this, the inoculum was adjusted to a value of 10^8 CFU/ml (CFU: colony forming units). After the adjustment of the inoculum, the suspension was diluted with nutrient solution (Mueller Hinton broth, Difco) in a ratio of 1:10000. The microtiter plate was inoculated within 15 min of preparation of the inoculum. The exact colony count was determined by means of surface culture. Using the stock solution of the test compound and the nutrient medium (Mueller Hinton broth, Difco), a dilution series was prepared beforehand on the microtiter plate. […] The microtiter plates were read with the aid of a photometer at a wavelength of 590 nm by measurement of the absorption. IC80 values were subsequently calculated from the values of the dilution series according to a standard process as the concentration of the test compound which is necessary in order to inhibit the growth of the test organism Escherichia coli by 80%.

| Structure (SMILES) | Absorbance MIC (E. coli strain ATCC35218) [µg/mL] | IC80 for inhibition of Escherichia coli ATCC 35218 [1] [µg/mL] |
| --- | --- | --- |
| COC(CNC(=O)C(NC(=O)C(O)C(C)O)C(O)c1cncn1C)C(O)C(O)C(=O)N(C)C(Cc1ccccc1)C(=O)NCC(=O)NC(C(=O)NC(CO)C(=O)NC(C(=O)NC(CC(C)C)C(=O)NC(CO)C(=O)O)C(C)(C)O)C(C)(C)O (stereo not drawn) [formula Ia] (X1-[X2][X3][NMeF]G[ξVal(3-OH)]S[ξVal(3-OH)]LS-OH; configuration not given here) | 1 to 4 | – |
| COC(CNC(=O)C(NC(=O)C(O)C(C)O)C(O)c1cncn1C)C(O)C(O)C(=O)N(C)C(Cc1ccccc1)C(=O)NC(O)C(=O)NC(C(=O)NC(CO)C(=O)NC(C(=O)NC(CC(C)C)C(=O)NC(CO)C(=O)O)C(C)(C)O)C(C)(C)O (stereo not drawn) [formula Ib] (X1-[X2][X3][NMeF][X4][ξVal(3-OH)]S[ξVal(3-OH)]LS-OH; configuration not given here) | 8 | 0.71 |
